Data taken from patent US20190112208A1, “COMPOSITIONS EXHIBITING SYNERGY IN BIOFILM CONTROL” (SOLENIS TECHNOLOGIES, L.P., priority 2017, published 2019).
Read-outs that look alike come from different tables or passages of the source.

Tested on: Pseudomonas putida biofilms
Format: cell-based
Procedure: In this work the efficacy of the agents alone and in combination were determined by measuring the number of viable cells in model biofilms remaining after treatment. The Minimum Biofilm Eradication value (MBEC) is defined as a 95% reduction in the number of viable cells compared to the untreated control. The relatively non-toxic dispersants are unable to reach that level of killing with physically possible concentrations, thus for those agents the MBEC is considered the highest value tested. Since this value is used as the divisor in the synergy index equation this highest tested value is actually an underestimate of the MBEC and thus synergy index values are also […].
Dose response studies were performed to determine the Minimum Biofilm Eradication Concentration (MBEC) for monochloramine and SDBS alone. The MBEC is defined as the concentration of agent that reduces the viable biofilm population by 95% of the untreated control value as measured by viable plate counts. Experiments were then performed to determine the result of combining the two agents, oxidizing biocide monochloramine and dispersant SDBS, on biofilm populations. The experiments examined three concentrations of monochloramine with four concentrations of SDBS. The SDBA used in the examples was Bio-Soft™ D-4 (Stepan Company, Northfield, Ill.).
M9YG media is a simple minimal salt medium supplemented with 500 mg/L glucose and 0.01% yeast extract. The salts composition is intended to mimic a typical cooling tower water composition. The composition of the media is made using the following procedure: 5XM9 salt composition is mixed using 64 gm Na2HPO4.7H2O, 15 grams KH2PO4, 2.5 gm NaCl and 5 grams NH4Cl in one liter of water. This is divided into 200 ml aliquots and sterilized (by autoclave). To 750 ml of sterile deionized water is added the sterile supplement solutions while stirring. A white precipitate will appear on addition of the CaCl2 but will dissolve with stirring. Supplement solution is 200 ml of 5XM9 composition, 2 ml of 1M MgSO4, 0.1 ml of 1M CaCl2, 20 ml of 20% glucose, 1 ml of 10% yeast extract, and enough water to make 1000 ml of solution. […]
Biofilms were grown on stainless steel 316 coupons in a CDC Biofilm reactor using M9YG minimal salts growth media for a period of twenty-four hours. […] Viable cells released into the fluid were then determined by a plating method.
Synergy indices were calculated as described in Kull et al. as in example 1.
Dose response studies were performed to determine the Minimum Biofilm Eradication Concentration (MBEC) for monochloramine/dichloramine blend (MCA/DCA) and SDBS alone. The MBEC is defined as the concentration of agent that reduces the viable biofilm population by 95% of the untreated control value as measured by viable plate counts. […]

| Compound | % Biofilm reduction (Example 1, 312 mg/L SDBS alone) | % Biofilm reduction (Example 2, 312 mg/L SDBS alone) | % Biofilm reduction (Example 1, 20 mg/L MCA alone) | % Biofilm reduction (Example 1, 20 mg/L MCA alone, listed as monochloramine) |
| --- | --- | --- | --- | --- |
| Sodium dodecylbenzenesulfonates [SDBS] | 48.62% | 84.58% | – | – |
| NCl [MCA, monochloramine] | – | – | 93.58% | greater than 90% |
